Measurements from US20090131313A1, “LKKTET AND/OR LKKTNT PEPTIDE COMPOSITIONS AND METHODS FOR TREATING OR PREVENTING TISSUE DETERIORATION, INJURY OR DAMAGE” (REGENERX BIOPHARMACEUTICALS, INC., priority 2005, published 2009).

How the values were obtained:
[1] = test system: Human corneal epithelial cells; assay: annexin-based cell death (apoptosis) assay
Method: (§1) Human corneal epithelial cells at approximately 80% confluence were treated with 0%, 0.001%, 0.01%, or 0.1% BAK for 15 minutes. After 3 and 24 hours of recovery in culture medium, cell proliferation was measured using a calorimetric BrdU incorporation assay. Apoptosis was measured using a calorimetric annexin-based cell death assay. […] To further assess the ability of Tb4 to prevent apoptosis, corneal epithelial cells were treated with 0.01% BAK±Tβ4 over a 5 day time course.

[2] = test system: Human corneal epithelial cells; assay: BrdU incorporation cell proliferation assay; type: cell-based; settings: 1 mcg/ml Tβ4, 3 and 24 hour time points
Method: as §1

| Substance | corneal epithelial cell apoptosis compared to control ([1]; 0.001%, 0.01% or 0.1% BAK for 15 minutes, 3 and 24 hours recovery) | cell proliferation of BAK-treated cells in the presence of Tβ4 [2] | apoptosis of BAK-treated cells in the presence of Tβ4 ([1]; 1 mcg/ml Tβ4, BAK-treated cells, 3 and 24 hour time points) | apoptosis compared to cells cultured in medium alone ([1]; Tβ4-treated cells, 5 days in culture) |
| --- | --- | --- | --- | --- |
| benzalkonium chloride [BAK, reference compound] | increased | – | – | – |
| Thymosin beta 4 (SDKPDMAEIEKFDKSKLKKTETQEKNPLPSKETIEQEKQAGES; Thymosin beta-4; UniProt P62328 2-44, looked up) [Tβ4] | – | not promoted | not inhibited | decreased apoptosis |
